What was measured:
[1] = molecular target: T1, prostatic acid phosphatase (PAP) (Homo sapiens, UniProt P15309); assay: PAP secretion in VCaP cell culture with conjugates, ELISA; assay type: cell-based; conditions: overnight; for inhibition of PAP secretion: 0.1 mM or 1.0 mM in VCaP cell culture medium
T1 construct: endogenous in cells; host or cells: VCaP (human prostate cancer cell line); in A3 also MC3T3 pre-osteoblasts, alone or in co-culture
T1 sequence (P15309 33-386): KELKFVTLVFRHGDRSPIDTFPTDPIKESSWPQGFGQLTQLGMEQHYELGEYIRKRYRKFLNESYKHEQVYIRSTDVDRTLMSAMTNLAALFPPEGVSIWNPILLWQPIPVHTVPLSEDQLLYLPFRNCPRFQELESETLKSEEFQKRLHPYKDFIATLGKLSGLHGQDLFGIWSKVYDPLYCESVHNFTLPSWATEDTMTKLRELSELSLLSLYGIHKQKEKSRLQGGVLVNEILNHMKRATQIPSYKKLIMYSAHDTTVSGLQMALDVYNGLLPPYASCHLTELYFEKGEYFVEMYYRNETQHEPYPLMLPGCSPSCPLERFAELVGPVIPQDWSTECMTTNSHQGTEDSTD
Experimental: Either the glyceric acid conjugate (i.e., N-Alendronyl-D-Glyceramide) (example 1, 0.1 mM or 1.0 mM) or the tartaric acid conjugate (i.e., N-Alendronyl-L-Tartaric Acid Monamide) (example 2, 0.1 mM or 1.0 mM) was added to VCaP cell culture medium, and incubated overnight. PAP secretion was measured using an ELISA assay.

RAW cells [2] = assay: RAW pre-osteoclast cell growth in co-culture experiments, hemacytometer; assay type: cell-based; conditions: tartrate (2004) for 2 days
Experimental: (§1) In order to determine the effects of prostatic acid phosphatase (PAP) on osteoclast differentiation and activity, a series of co-culture experiments were performed in which pre-osteoclast cells (RAW cells) were co-cultured with either PAP-positive (PAP^+), VCaP cells or PAP-negative (PAP^−) (PC3) human prostate cancer (PCa) cells. RAW cells were counted in a hemacytometer on day 5.
(§2) VCaP (PAP^+) and PC3 (PAP^−) cells (5×10^4 each) were seeded on inserts in RPMI or DMEM medium with 10% FBS. Pre-osteoclast, PRAW cells (5×10^4) were plated on the bottom in 12 well plates. After 2 days, medium was changed to serum-free DMEM with 0.1% BSA+/− tartrate (2004) for 2 days. Mean number of multinucleated cells (hallmark of osteoclast differentiation) was determined on day 5 by multiple field counts in 200× objective view.

RAW cells [3] = assay: RAW cell differentiation, mean number of multinucleated cells; assay type: cell-based; conditions: tartrate (2004) for 2 days
Experimental: as §1, §2

RAW (osteoclast) cells = assay: Osteoclast bone-resorbing activity, pit formation on osteologic discs; assay type: cell-based; conditions: tartrate 20 μM, 7 days, RANKL and MCSF
Experimental: The effect of PAP on osteoclast bone-resorbing activity was measured by assaying pit formation when osteoclasts were cultured on bone matrix (osteologic discs). RAW (osteoclast) cells (2×10^4 cells), PC3 (PAP^−) cells (2×10^4 cells), and VCaP (PAP^+) cells (3×10^4 cells) were plated, alone or in combination, on calcium hydroxyapatite-coated osteologic discs in DMEM medium with 10% FBS for 7 days+/−tartrate (20 μM). All cultures were treated with RANKL ([…]) and MCSF ([…]). On day 7, cells were washed and discs stained with von Kossa to visualize the calcium matrix and pits (which indicate bone resorption by the RAW osteoclast cells).

bone acid phosphatase = molecular target: T2, bone acid phosphatase (Homo sapiens, UniProt P13686); conditions: cited from earlier work
T2 sequence (P13686 22-325): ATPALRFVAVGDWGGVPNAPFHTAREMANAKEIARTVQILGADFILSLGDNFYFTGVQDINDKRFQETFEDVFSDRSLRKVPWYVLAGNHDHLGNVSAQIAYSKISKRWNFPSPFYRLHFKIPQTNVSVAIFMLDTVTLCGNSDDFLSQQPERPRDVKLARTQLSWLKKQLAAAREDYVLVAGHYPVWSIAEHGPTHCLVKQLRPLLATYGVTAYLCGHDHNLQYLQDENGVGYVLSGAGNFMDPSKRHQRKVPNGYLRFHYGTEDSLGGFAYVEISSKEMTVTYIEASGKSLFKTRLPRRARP

VCaP cells = assay: Growth of VCaP prostate cancer cells, single line or co-culture, counted by hemacytometer; assay type: cell-based, human; conditions: tartrate 20 μM, 7 days, serum free medium
Experimental: (§3) The human prostate cancer cell line VCaP (originally derived from a vertebral metastases) and the pre-osteoblast cell line MC3T3, were used to for in vitro studies with tartrate. Each cell culture was grown in serum free medium either in single line or co-culture, and treated with or without tartrate (20 μM) for 7 days. Cell numbers were counted by a hemacytometer and the secretion of PAP and bone alkaline phosphatase (ALP) was measured using ELISA.

[4] = test system: bone alkaline phosphatase (ALP); assay: Secretion of bone alkaline phosphatase (ALP), ELISA; assay type: cell-based; conditions: tartrate 20 μM, 7 days
Experimental: as §3
Secretion of bone alkaline phosphatase (ALP) by pre-osteoblast cells is correlated with pre-osteoblast differentiation into mature osteoblasts cells. Accordingly, ALP secretion was measured to indirectly determine whether the inhibition of PAP secretion by tartrate also served to attenuate differentiation events. […] This effect was not seen in the single line MC3T3 and VCaP cell cultures.

PAP = molecular target: T3, PAP (Homo sapiens, UniProt P15309); conditions: see U.S. Pat. No. 5,763,490; cited from earlier work
T3 sequence (P15309 33-386): T1 sequence (P15309 33-386)

MC3T3 cells = assay: Growth of MC3T3 pre-osteoblast cells, single line or co-culture, counted by hemacytometer; assay type: cell-based; conditions: tartrate 20 μM, 7 days, serum free medium
Experimental: as §3

[5] = test system: prostatic acid phosphatase (PAP); assay: Secretion of PAP from MC3T3 and VCaP single line and co-cultures, ELISA; assay type: cell-based, human; conditions: tartrate 20 μM, 7 days, MC3T3 cells (very low PAP levels)
Experimental: as §3

[6] = molecular target: T1, prostatic acid phosphatase (PAP); assay: as above; assay type: cell-based; conditions: tartrate 20 μM, 7 days
Experimental: as §3

O=C(O)C(O)[C@H](O)C(=O)NCCCC(O)(P(=O)(O)O)P(=O)(O)O (stereo partly drawn) [example 2, N-Alendronyl-L-Tartaric Acid Monamide]
inhibition of PAP secretion [1]: inhibit PAP secretion

O=C(NCCCC(O)(P(=O)(O)O)P(=O)(O)O)[C@H](O)CO [example 1, N-Alendronyl-D-Glyceramide]
inhibition of PAP secretion [1]: significantly inhibited
effectiveness as a PAP inhibitor compared with tartrate alone ([1]; VCaP cell culture medium): as effective as tartrate alone

O=C(O)[C@H](O)[C@@H](O)C(=O)O [tartrate, L-tartrate]
effect on growth of RAW cells co-cultured with PC3 cells (RAW cells [2]; counted day 5, co-culture with PC3 (PAP-)): did not have a significant effect
effect on growth of RAW cells co-cultured with VCaP cells (RAW cells [2]; counted day 5, co-culture with VCaP (PAP+), p<0.01): significantly inhibited
effect on growth of RAW cells alone (RAW cells [2]; serum-free DMEM with 0.1% BSA, counted day 5, RAW alone): did not have a significant effect
effect on differentiation of RAW cells alone (RAW cells [3]; multinucleated cells on day 5, RAW alone): did not have a significant effect
effect on differentiation of RAW cells co-cultured with PC3 cells (RAW cells [3]; multinucleated cells on day 5, co-culture with PC3): did not have a significant effect
effect on RAW cell differentiation when co-cultured with VCaP (RAW cells [3]; multinucleated cells on day 5, co-culture with VCaP, p<0.01): significantly inhibited
decrease of pit formation, RAW cells co-cultured with VCaP (RAW (osteoclast) cells): 50%
effect on number of pits, RAW cells co-cultured with PC3 cells (RAW (osteoclast) cells): no significant effect
inhibition of bone acid phosphatase (bone acid phosphatase): is not
effect on VCaP cell growth when co-cultured with MC3T3 cells (VCaP cells; co-culture with MC3T3): did not have a significant effect
effect on growth of VCaP single line cell culture (VCaP cells; single line): did not have a significant effect
bone alkaline phosphatase secretion by MC3T3 cells in co-culture with VCaP cells ([4]; co-culture with VCaP): significantly inhibited
bone alkaline phosphatase secretion, single line MC3T3 cell culture ([4]; single line MC3T3): not seen
bone alkaline phosphatase secretion, single line VCaP cell culture ([4]; single line VCaP): not seen
inhibition of PAP (PAP): inhibited
effect on growth of MC3T3 cells co-cultured with VCaP cells (MC3T3 cells; co-culture with VCaP, p<0.01): significantly inhibited
effect on growth of MC3T3 single line cell culture (MC3T3 cells; single line): did not have a significant effect
PAP secretion by MC3T3 cells [5]: did not inhibit
prostatic acid phosphatase secretion by VCaP cells grown alone ([6]; VCaP alone): significantly inhibited
prostatic acid phosphatase secretion by VCaP cells in co-culture with MC3T3 cells ([6]; co-culture with MC3T3): significantly inhibited

Reference: patent US20110065672A1, “BISPHOSPHONATE-PROSTATIC ACID PHOSPHATASE INHIBITOR CONJUGATES TO TREAT PROSTATE CANCER BONE METASTASIS” (MOUNT SINAI SCHOOL OF MEDICINE OF NEW YORK UNIVERSITY, priority 2009, published 2011)
